Key:
[1] = test system: MDA-MB-231, SUM-149, T47D; experiment: Cytotoxicity of EP analogues via CTG assay, comparison across cell lines; details: 72 hr
Method: To better understand the structure-activity-relationship of EP, its core was modified at the C3 position of the steroid backbone. […] Both normal cell lines HMEC and BJ cells were also evaluated to determine therapeutic index.
(§1) Either 1×10^3-4.8×10^3 or 4×10^2-1.2×10^3 cells were seeded to each well of 96- or 384-well white polystyrene flat-bottomed plates (3610 or 8804BC, Corning) in 100 μL or 30 μL media per well, respectively. The concentrations used were experimentally determined to ensure logarithmic growth during the duration of the experiment and prevent adverse effects on cell growth by DMSO exposure. The plates were incubated at 37° C. in 5% CO2 for 24 h before treatment. Stock solutions of test compounds (10 mM in DMSO) in nine 3-fold serial dilutions were dispensed via pintool (Biomek). The final concentration of DMSO was 0.3% (v/v) in each well. The plates were incubated for 72 h at 37° C. in 5% CO2 and then quenched with CellTiter-Glo® reagent (50 μL/well in 96-well plate, 30 μL/well in 384-well plate) at RT. The positive controls included staurosporine (10 μM), gambogic acid (10 μM), and a toxic quinoline generated in-house. Plates were then incubated at RT for 20 min and centrifuged at 1000 rpm for 1 min. The cytotoxicity assay was performed by using the CellTiterGlo Luminescent Cell Viability Assay kit (G7570, Promega, Madison, WI) according to the manufacturer's instructions. Luminescence was recorded in an Envision plate reader (Perkin Elmer).

MDA-MB-231 = experiment: Cytotoxicity of EP probes via CTG assay; assay type: cell-based, human; details: 72 hr, read-out: MDA-MB231 EC50
SUM-149 = experiment: Cytotoxicity of EP probes via CTG assay; assay type: cell-based, human; details: 72 hr, read-out: SUM149 EC50
Propidium iodide assay = assay type: cell-based
Method: Efforts to address the specific target in breast cancer cellular models are disclosed. Thus, in the present disclosure, the EP-chemical probes were generated to study subcellular co-localization in order to recover its potential mechanism in breast cancer cell models. An efficient synthetic approach to EP and its analogues from ergosterol was developed. The resultant EP compounds were evaluated for cytotoxicity/apoptosis via CellTiterGlo assay, and propidium iodide assay.

T47D = experiment: Cytotoxicity of EP probes via CTG assay; assay type: cell-based; details: 72 hr
HMEC = experiment: Cytotoxicity of EP probes via CTG assay, normal cells; assay type: cell-based; details: 72 hr
Solubility observations = assay type: physicochemical; details: DMSO
Method: One of the liabilities with EP is sharing its core with cholesterol, an amphipathic molecule with part-water soluble, part-water insoluble character. Thus, while able to readily cross the cell membrane, the ability to deliver the pure compound faces challenges. EP's solubility properties are poor in DMSO or water unless warmed up to 30° C. However, in this report, EP's derivative, EP sulfonamide, was soluble at 10 mM in DMSO. Thus, the generation of a selective anti-cancer compound with greater potency than EP, and ample therapeutic window when compared to BJ normal cells, was accomplished.

BJ cells = experiment: Cell viability assay in normal fibroblasts; details: at the concentrations tested
Method: The compounds' activity was also evaluated in human and murine leukemia (KOPN8, BCR-ABL, UoCB-1, SUP-B15, NALM06) cell lines. As a control, normal human skin fibroblasts (BJ) cells and non-cancerous mammary epithelial cells (MCF10A) were used.
Different concentrations of GLE-extracted bioactive chemical components were tested for 72-h treatment periods.
as §1, with “The cytotoxicity assay was performed by using the CellTiterGlo Luminescent Cell Viability Assay kit (G7570, Promega, Madison, WI) according to the manufacturer's instructions.” left out
For the CTG assay, 3 or 4 replicate assays were conducted for each experimental condition, and a minimum of 3 independent experiments were conducted for cellular assays. The mean luminescence of each experimental treatment group was normalized as a percentage of the mean intensity of untreated controls. EC50 values (μM) were calculated by Pipeline Pilot Software (Accelrys, Enterprise Platform, CA, USA). EC50 values (μM) from the viability assay were calculated from dose response curve-fitting via non-linear regression by using GraphPad Prism (Version 7.0 San Diego, CA). […]

SUM-149 cells [2] = experiment: Cell viability assay (CellTiter-Glo or PI staining); assay type: cell-based, human
SUM-149 cells [3] = experiment: ApoTox-Glo Triplex assay (caspase 3/7); assay type: cell-based, human; details: SUM-149, 24 h
Method: (§2) Cells commonly fail to bypass the G1 phase of the cycle due to mutations or DNA damage, which can result in apoptosis. […] In addition, caspase 3/7 activity assays were performed as an alternate method of apoptosis detection.
(§3) Cells (9.5×10^4/well in 75 μL of fresh medium) were dispensed in 96-well black flat bottom (8807BC, Corning) plates. The cells were incubated for 12 h at 37° C. and then treated with compounds (25 μL) for 24 h. DMSO was used as a negative control, and staurosporine was used as the positive control. The experiment was stopped by adding the Viability/Cytotoxicity Reagent and briefly mixed by orbital shaking (300-500 rpm for ˜30 sec). Plates were incubated for 30 min at 37° C., and fluorescence was measured in an Envision plate reader at the following two wavelength sets: 400Ex/505Em (Viability) 485Ex/520Em (Cytotoxicity). Then, the Caspase-Glo® 3/7 Reagent was added; plates were mixed briefly by orbital shaking (300-500 rpm for ˜30 sec), followed by an additional 30 min incubation at RT. Then luminescence, which correlates with caspase 3/7 activation, was recorded with a plate reader to determine apoptosis induction.

MDA-MB-231 cells [4] = experiment: ApoTox-Glo Triplex assay (caspase 3/7); assay type: cell-based, human; details: MDA-MB-231, 24 h
Method: as §2, §3

[5] = test system: MDA-MB-231 breast cancer cells; experiment: De novo in-cell protein synthesis (click assay); assay type: cell-based, human; details: 2 h treatment; EP 20 μM
Method: First, 2.5×10^4 cells/well were seeded in 8-well μ-slides (Ibidi®, #80826) and incubated at 37° C. for 12 h. The cells were treated with vehicle, compounds Ganoderic acid A or EP, or cycloheximide (positive control) for 2 h to determine protein synthesis as nascent proteins generated using Biovision's EZClick™ Global Protein Synthesis Assay Kit, (#K715-100, Milpitas, CA). The assay includes a robust chemical method based on an alkyne containing o-propargyl-puromycin (OP-puro) probe, which stops translation by forming covalent conjugates with nascent polypeptide chains. Truncated polypeptides are rapidly turned over by the proteasome and can be detected based on the subsequent click reaction with a fluorescent azide. The reaction was conducted according to the manufacturer's protocol. Cells were imaged at 20× with a Nikon C2 scanning confocal microscope, and the whole image montage was quantified by using Gen5 Software and Lionheart™ FX Automated Microscope (BioTek, Winooski, VT).

[6] = test system: MCF-7 breast cancer cells; experiment: Reactive oxygen species (ROS) measurement, CellROX; assay type: cell-based, human; details: not statistically significant for the GLE compounds
Method: Live-cell CellROX® assays for oxidative stress detection were conducted to evaluate whether GA-01, ergosterol, 5-6-dihydroergosterol and EP trigger intrinsic apoptosis pathways by inducing ROS. […] Menadione or t-Butyl hydrogen peroxide (TBHP) were positive controls (FIGS. 7 and S5) and co-treated with N-acetyl cysteine (NAC) to confirm that the signal was due to ROS formation induced by the compound. […] Furthermore, the possibility of the endoperoxide motif to react with NAC, was assessed EP was incubated with NAC in DMSO for 24 h at 37° C. […] Thus, the ability of EP to induce ROS could potentially be via a different mechanism from that of TBHP in MCF-7 cells.
The mRuby-Mito-7 plasmid was obtained from Addgene (#55874 from Michael Davidson). A stable clone of MCF-7 was generated by using Fugene 6 (Roche) to transfect cells (2×10^5) with plasmid (2.0 μg) under neomycin selection. A stable cell line was selected by using G418 (300 μg/mL) for 2 weeks, sorted by flow cytometry, and maintained under G418 thereafter. Transfected MCF-7 cells were plated at a density of 2×10^4 cells/well in black 96-well clear bottom tissue culture plates and incubated overnight at 37° C. […] Fluorescence intensity was measured in a Clariostar® plate reader (BMG LABTECH, Cary, NC) at 535 nm.

[7] = test system: various breast cancer cell lines; experiment: Cell viability assay, breast cancer cell line panel; assay type: cell-based
MDA-MB-231 cells [8] = experiment: Reactive oxygen species (ROS) measurement, CellROX; assay type: cell-based, human; details: NAC 500 μM
SUM-149 cells [9] = experiment: Reactive oxygen species (ROS) measurement, CellROX; assay type: cell-based, human; details: NAC 500 μM

With `CC(C)C(C)C=CC(C)C1CCC2C1(C)CCC1C23C=CC2(CC(OC(=O)CCCCC4SCC5NC(=O)NC54)CCC12C)OO3` (stereo not shown) [3k] the “cytotoxicity compared with parental compound 3 (in words)” value [1] was “comparable cytotoxicity to the parental compound 3”, the EC50 (MDA-MB-231) was 10 µM and the EC50 (SUM-149) was 4 µM. The “ability to induce apoptosis” value (Propidium iodide assay) was “validated via propidium iodide assay”, the EC50 (T47D) was over 10 µM and the EC50 (HMEC) was over 14 µM.
In the case of `CC(C)C(C)C=CC(C)C1CCC2C1(C)CCC1C23C=CC2(CC(OC(=O)Cn4cc(CNC(=O)c5ccc6c(c5)C(=O)OC65c6ccc(N(C)C)cc6Oc6cc(N(C)C)ccc65)nn4)CCC12C)OO3` (stereo not shown) [3l], the EC50 (MDA-MB-231) is reported as 20 µM, the “solubility properties (in words)” value (Solubility observations; water or PBS) is reported as “poor solubility properties and precipitated readily in DMSO or PBS” and the EC50 (SUM-149) is reported as 18 µM. The EC50 (T47D) was over 20 µM and the EC50 (HMEC) was over 20 µM.
With `Cc1cc(C)n2c1C=C1C=CC(CCC(=O)OC3CCC4(C)C5CCC6(C)C(C(C)C=CC(C)C(C)C)CCC6C56C=CC4(C3)OO6)=[N+]1[B-]2(F)F` (stereo not shown) [3m] the “cytotoxicity compared with parental compound 3 (in words)” value [1] was “comparable cytotoxicity to the parental compound 3”, the EC50 (MDA-MB-231) was 18 µM and the EC50 (SUM-149) was 2 µM. For the same compound, the “ability to induce apoptosis” value (Propidium iodide assay) was “validated via propidium iodide assay”, the EC50 (T47D) was 18 µM and the EC50 (HMEC) was over 15 µM.
With `CC(C)C(C)C=CC(C)C1CCC2C1(C)CCC1C23C=CC2(CC(OC(=O)NS(=O)(=O)c4ccccc4)CCC12C)OO3` (stereo not shown) [EP sulfonamide, ergosterol peroxide sulfonamide] the “cytotoxic effects in normal BJ cells” value (BJ cells) was “minimal”, the “solubility in DMSO” value (Solubility observations) was at least 10 mM and the EC50 (SUM-149 cells [2]; FIG. 10A, SUM-149 breast cancer cells, read-out: EC50, cancer cell viability of derivative) was 12 µM.
In the case of `C[C@H](CC(=O)C[C@@H](C)[C@H]1C[C@H](O)[C@@]2(C)C3=C(C(=O)C[C@]12C)[C@@]1(C)CCC(=O)C(C)(C)[C@@H]1C[C@@H]3O)C(=O)O` [GA-01, ganoderic acid A], the “caspase 3/7 activity” value (SUM-149 cells [3]) is reported as “increase caspase 3/7 activity”, the “caspase 3/7 activity” value (MDA-MB-231 cells [4]) is reported as “increase caspase 3/7 activity” and the “cytotoxic effects in normal BJ cells” value (BJ cells) is reported as “did not induce cytotoxic effects”. For the same compound, the “de novo protein synthesis inhibition” value [5] was “do not inhibit de novo protein synthesis”.
With `CC(C)(C)OO` [TBHP, t-Butyl hydroperoxide] the “ROS formation reduction when co-treated with NAC” value [6] was about 50%.
With `CC(C)[C@@H](C)/C=C/[C@@H](C)[C@H]1CC[C@H]2C3=CC=C4C[C@@H](O)CC[C@]4(C)[C@H]3CC[C@]12C` [ergosterol] the “cytotoxic effects in normal BJ cells” value (BJ cells) was “did not induce cytotoxic effects”, the EC50 ([7]; 72-h treatment) was over 50 µM and the “cancer cell viability significantly reduced starting at” value ([7]; breast cancer cellular models, 72-h) was 64 µM. The “concentration at which SUM-149 cell viability is significantly reduced” value (SUM-149 cells [2]; 72 h) was 64 µM.
With `CC1=CC(=O)c2ccccc2C1=O` [menadione, Menadione, reference compound] the “reduction in ROS formation in the presence of NAC” value (MDA-MB-231 cells [8]) was “about 20%” and the “reduction in ROS formation in the presence of NAC” value (SUM-149 cells [9]) was “about 20%”.

Source: US12263177B2, “Biologically active ganoderma lucidum compounds and synthesis of anticancer derivatives; ergosterol peroxide probes for cellular localization” (priority 2019, dated 2025)
